Here are results for two compounds from patent US11161912B2, “Heparanase-neutralizing monoclonal antibodies” (Technion Research & Development Foundation Limited, priority 2015, dated 2021).

Assay [1] deals with ESb mouse T-lymphoma cells. Briefly: ESb T-lymphoma spontaneous liver metastasis and survival. It is filed as in vivo. The conditions noted are these: PG545 20 mg/kg once a week. As to the method:
(§1) Lymphoma cells were also inoculated subcutaneously at the right flank of 6-weeks-old NOD/SCID mice (human cell lines) or C57BL/6 mice (E1-4 mouse lymphoma cells) (n=7). Mice were treated with heparanase inhibitors (PG545; SST0001) or neutralizing antibodies and xenografts size was determined by externally measuring the tumors in 2 dimensions using a caliper. At the end of the experiment, mice were sacrificed; tumor xenografts were removed, weighed and fixed for histological and immunohistochemical analyses (Weissmann et al, 2016, Proc Natl Acad Sci USA 113:704-709). ESb mouse T-lymphoma cells (5×10^5) were similarly inoculated subcutaneously into SCID mice and spontaneous metastasis to the liver (Vlodaysky et al., 1983, Cancer Res 43:2704-2711) was examined after 3 weeks of treatment with PG545 or the neutralizing mAb, as described above. All animal experiments were approved by the Animal Care Committee of the Technion, Haifa, Israel.
FIG. 3A. HEK 293 cells were incubated with latent 65 kDa (upper panel) or GS3 constitutively active heparanase (1 μg/ml; third panel) and the indicated mAbs (10 μg/ml). The cell medium was aspirated at the time designated and cell lysates were subjected to immunoblotting applying anti-heparanase antibody (upper and third panels). […] Heparanase-transfected 293 cells were grown with control mouse IgM or mAb 9E8 for two days. Cells were then fixed with methanol and subjected to immunofluorescent staining applying anti heparanase antibody (second panel) or lysed and subjected to immunoblotting applying anti-heparanase antibody (fourth panel). Purified recombinant active heparanase (200 ng) was pre-incubated with control mouse IgM ( ? ), mAb 8A5 ( ? ), mAb 9E8 ( ? ), all at 2 μg/ml, for 2 h in serum-free RPMI medium on ice. The mixture was then applied onto ^35S-labeled ECM-coated dishes and heparanase activity was determined as described above (lower panel). FIG. 3B, C. […] Quantification of the extent of CD45 staining is shown graphically in the lower panel. […]

Assay [2] has as its system Raji lymphoma cells. The assay can be described thus: Subcutaneous Raji lymphoma xenograft in NOD/SCID mice. It is filed as in vivo, human. As to the method:
(§2) Lymphoma cells were also inoculated subcutaneously at the right flank of 6-weeks-old NOD/SCID mice (human cell lines) or C57BL/6 mice (E1-4 mouse lymphoma cells) (n=7). Mice were treated with heparanase inhibitors (PG545; SST0001) or neutralizing antibodies and xenografts size was determined by externally measuring the tumors in 2 dimensions using a caliper. At the end of the experiment, mice were sacrificed; tumor xenografts were removed, weighed and fixed for histological and immunohistochemical analyses (Weissmann et al, 2016, Proc Natl Acad Sci USA 113:704-709). […]
(§3) A. Specimens of human follicular (FIG. 1A, left panel) and diffuse (FIG. 1A, right panel) B-cell lymphomas were subjected for immunostaining applying anti-heparanase antibody. […] Lysates of Raji cells and extracts of tumor xenografts produced by Raji cells were applied onto dishes coated with sulfate-labelled ECM and heparanase enzymatic activity was determined as described (Vlodaysky I, et al. 1999, Nature Med 5(7):793-802). […] Extracts of control (Con) and PG545-treated tumor xenografts produced by Raji cells were applied onto dishes coated with sulfate labelled ECM and heparanase activity was determined as above (lower panel).

Assay [3] relates to SU-DHL-6 lymphoma cells. The assay can be described thus: Subcutaneous SU-DHL-6 lymphoma xenograft in mice. The conditions noted are these: SU-DHL-6, PG545 IP 20 mg/kg once weekly from one day after inoculation. The class given is in vivo, human. Background: Xenograft models place foreign cells or tissue in a host animal.
Experimental: The indicated lymphoma cells (5×10^6) were implanted subcutaneously in NOD/SCID mice (n=7) and mice were administered with PG545 (IP, 20 mg/kg, once weekly, starting one day after cell inoculation), or control vehicle (PBS; Con). At termination, tumors were removed, weighted and embedded in paraffin for histological and immunohistochemical analyses. Mice were similarly inoculated with the indicated lymphoma cells and were treated with the indicated concentration of PG545 (mg/kg once a week; FIG. 1C) or were treated with PG545 (20 mg/kg once a week) once the tumors became palpable (FIG. 1D). Shown are average (±SE) tumor weight (gr.).
For assay [4], the system named is Ramos lymphoma cells. Briefly: Subcutaneous Ramos lymphoma xenograft in NOD/SCID mice. As to conditions: PG545 IP 20 mg/kg once weekly from one day after inoculation. It is filed as in vivo, human. As to the method:
as §2, §3

The test system of assay [5] is E1-4 mouse lymphoma cells. Briefly: Subcutaneous E1-4 mouse lymphoma tumors. It is filed as in vivo. The conditions noted are these: E1-4 cells lacking heparanase activity. As to the method:
as §1

Assay [6] relates to Raji-luciferase cells. The assay can be described thus: Raji-luciferase lymphoma, tail vein inoculation, bone marrow growth by IVIS imaging. The class given is in vivo, human. The conditions noted are these: PG545 20 mg/kg once a week. On the procedure:
Tumorigenicity. Luciferase-labelled CAG myeloma (5×10^6) or Raji lymphoma (1×10^6) cells were injected into the tail vein of NOD/SCID mice (n=5). Mice were treated with PG545 (20 mg/kg, once weekly), mAb 9E8 (600 μg/mouse) every other day starting one day following cell inoculation and tumor growth was examined by IVIS imaging. At termination, mice were sacrificed, the backbones were excised, fixed in formalin and following de-calcification with 10% EDTA solution were embedded in paraffin and subjected to histological and immunohistochemical analyses essentially as described (Weissmann et al, 2016, Proc Natl Acad Sci USA 113:704-709). Dose of 25-30 mg/kg (i.e., 500-600 μg mAb/mouse) is typical in cancer restraining experiments (Van Looy T, et al. 2015, Transl Oncol 8(2):112-118).
IVIS imaging. Bioluminescent imaging of the luciferase-expressing tumors was performed with a highly sensitive, cooled charge coupled device (CCD) camera mounted in a light-tight specimen box (IVIS; Xenogen Corp., Waltham, Mass.). Briefly, mice were injected intraperitoneally with D-luciferin substrate at 150 mg/kg, anesthetized and placed onto a stage inside the light-tight camera box, with continuous exposure to isoflurane (EZAnesthesia, Palmer, Pa.). Light emitted from the bioluminescent cells was detected by the IVIS camera system with images quantified for tumor burden using a log-scale color range set at 5×10^4 to 1×10^7 and measurement of total photon counts per second (PPS) using Living Image software (Xenogen) (Weissmann et al, 2016, Proc Natl Acad Sci USA 113:704-709).
FIG. 4A. Raji-luciferase cells (1×10^6) were injected into the tail vein of NOD/SCID mice (n=5). Mice were treated with PG545 (20 mg/kg once a week) starting one day after cell inoculation and IVIS imaging was applied to quantify tumor load. […] NOD/SCID mice (n=5) were inoculated (iv) with Raji-luciferase cells and mice were treated with mAb 9E8 (600 μg/mouse every other day) (FIG. 4C) and tumor growth was evaluated by IVIS imaging (left panels). Quantification of luciferase signals is shown graphically in the right lower panel.

Assay [7] concerns Daudi lymphoma cells. Briefly: Subcutaneous Daudi lymphoma xenograft in NOD/SCID mice. The class given is in vivo, human. The conditions noted are these: PG545 IP 20 mg/kg once weekly from one day after inoculation. On the procedure:
as §2, §3

Assay [8] concerns human lymphoma cell lines. Briefly: Subcutaneous human lymphoma xenografts, dose response and treatment of palpable tumors (cell lines only 'indicated'). The class given is in vivo. As to the method:
as §2, §3

The subject of assay [9] is OCI-LY-19 lymphoma cells. Briefly: Subcutaneous OCI-LY-19 lymphoma xenograft in NOD/SCID mice. It is filed as in vivo, human. As to conditions: OCI-LY-19, PG545 IP 20 mg/kg once weekly from one day after inoculation. As to the method:
as §2, §3

Assay [10] has as its target T1, heparanase (Homo sapiens, UniProt Q9Y251).
T1 sequence (Q9Y251 36-543): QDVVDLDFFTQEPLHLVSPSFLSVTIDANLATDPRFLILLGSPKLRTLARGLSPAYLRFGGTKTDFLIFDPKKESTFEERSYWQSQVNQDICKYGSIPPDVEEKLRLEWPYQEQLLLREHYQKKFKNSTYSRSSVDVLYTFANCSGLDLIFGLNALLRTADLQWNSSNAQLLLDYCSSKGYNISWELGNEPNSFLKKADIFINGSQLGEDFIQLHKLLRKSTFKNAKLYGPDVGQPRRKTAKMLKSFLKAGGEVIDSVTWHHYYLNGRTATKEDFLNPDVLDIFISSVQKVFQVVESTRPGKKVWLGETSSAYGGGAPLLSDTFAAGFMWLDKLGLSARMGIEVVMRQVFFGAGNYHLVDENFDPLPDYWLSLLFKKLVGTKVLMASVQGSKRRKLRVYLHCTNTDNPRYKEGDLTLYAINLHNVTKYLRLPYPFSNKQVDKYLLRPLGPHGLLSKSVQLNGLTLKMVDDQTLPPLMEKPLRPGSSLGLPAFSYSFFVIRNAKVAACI
As to conditions: prior art; cited from earlier work.

For assay [11] the following is noted: prior art; cited from earlier work.

Consider `CC(C)CCC[C@@H](C)[C@H]1CC[C@H]2[C@@H]3CC[C@H]4C[C@@H](O[C@@H]5O[C@H](COS(=O)(=O)O)[C@@H](O[C@H]6O[C@H](COS(=O)(=O)O)[C@@H](O[C@H]7O[C@H](COS(=O)(=O)O)[C@@H](O[C@H]8O[C@H](COS(=O)(=O)O)[C@@H](OS(=O)(=O)O)[C@H](OS(=O)(=O)O)[C@H]8OS(=O)(=O)O)[C@H](OS(=O)(=O)O)[C@H]7OS(=O)(=O)O)[C@H](OS(=O)(=O)O)[C@H]6OS(=O)(=O)O)[C@H](OS(=O)(=O)O)[C@H]5OS(=O)(=O)O)CC[C@]4(C)[C@H]3CC[C@]12C` [PG545], for which, in [1] (ESb s.c. in NOD/SCID mice), the survival of mice entry is recorded as “prolonged”. Moreover, the liver metastasis entry in assay [1] (ESb) was “reduced liver metastasis”. The “growth of tumor xenografts (tumor weight)” value in assay [2] (Raji, PG545 IP 20 mg/kg once weekly from one day after inoculation) was “markedly attenuated”; in [3] it was “markedly attenuated”; in assay [4], “markedly attenuated”; in assay [7] it was “markedly attenuated”; in assay [9] it was “markedly attenuated”. The “heparanase activity in tumor xenograft extracts” value in [2] (extracts of Raji xenografts on sulfate labelled ECM) was “inhibits heparanase activity”. Also, the “growth of tumor xenografts” value in [5] is given as “not inhibited”. Further, the “blood vessel density (CD31) in bone marrow” value in assay [6] is listed as “decreased blood vessel density”. Also, the “expansion of Raji-luciferase cells in the bone marrow” value in assay [6] (IVIS) is reported as “markedly reduced”. Moreover, in assay [8] (PG545 20 mg/kg once a week (FIG. 1D)), the “inhibition of tumor xenograft growth when treated once lesions became palpable” value is recorded as “significant inhibition”. The “dose dependence of xenograft growth attenuation” value in [8] (indicated concentrations mg/kg once a week (FIG. 1C)) is given as “dose-dependent manner”.
As for KKFKNSTYSRSSVD [KKDC], the “inhibition of heparanase activity” value in assay [10] is given as “inhibits heparanase enzymatic activity”. In addition, in assay [11], the “interaction with heparin and HS” value is given as “high affinity”.
